Laboratory results from paper PMC8490825 (Frontiers in Molecular Biosciences, 2021).
Where two headings read alike, the source gives them in different places. Where a SMILES comes first, the peptide text is derived from it. Bridges are numbered along the chain shown (N, C = ends).

Legend:
hNaV1.7 [1] = target: T1, hNaV1.7 (Homo sapiens, UniProt Q15858); assay: cell-based; assay type: cell-based
hNaV1.1 = hNaV1.1 (Homo sapiens, UniProt P35498); assay: cell-based; assay type: cell-based
hNaV1.3 = hNaV1.3 (Homo sapiens, UniProt Q9NY46); assay: cell-based; conditions: N = 3-4; SEM; read-out: IC50 ± SEM, NaV1.3
hNaV1.7 [2] = target: T1, hNaV1.7; assay type: cell-based; conditions: SEM
hNaV1.4 = hNaV1.4 (Homo sapiens, UniProt P35499); assay: cell-based; assay type: cell-based; conditions: for IC50: N = 4, read-out: IC50 ± SEM, NaV1.4
hNaV1.4, sequence (P35499 whole entry, looked up): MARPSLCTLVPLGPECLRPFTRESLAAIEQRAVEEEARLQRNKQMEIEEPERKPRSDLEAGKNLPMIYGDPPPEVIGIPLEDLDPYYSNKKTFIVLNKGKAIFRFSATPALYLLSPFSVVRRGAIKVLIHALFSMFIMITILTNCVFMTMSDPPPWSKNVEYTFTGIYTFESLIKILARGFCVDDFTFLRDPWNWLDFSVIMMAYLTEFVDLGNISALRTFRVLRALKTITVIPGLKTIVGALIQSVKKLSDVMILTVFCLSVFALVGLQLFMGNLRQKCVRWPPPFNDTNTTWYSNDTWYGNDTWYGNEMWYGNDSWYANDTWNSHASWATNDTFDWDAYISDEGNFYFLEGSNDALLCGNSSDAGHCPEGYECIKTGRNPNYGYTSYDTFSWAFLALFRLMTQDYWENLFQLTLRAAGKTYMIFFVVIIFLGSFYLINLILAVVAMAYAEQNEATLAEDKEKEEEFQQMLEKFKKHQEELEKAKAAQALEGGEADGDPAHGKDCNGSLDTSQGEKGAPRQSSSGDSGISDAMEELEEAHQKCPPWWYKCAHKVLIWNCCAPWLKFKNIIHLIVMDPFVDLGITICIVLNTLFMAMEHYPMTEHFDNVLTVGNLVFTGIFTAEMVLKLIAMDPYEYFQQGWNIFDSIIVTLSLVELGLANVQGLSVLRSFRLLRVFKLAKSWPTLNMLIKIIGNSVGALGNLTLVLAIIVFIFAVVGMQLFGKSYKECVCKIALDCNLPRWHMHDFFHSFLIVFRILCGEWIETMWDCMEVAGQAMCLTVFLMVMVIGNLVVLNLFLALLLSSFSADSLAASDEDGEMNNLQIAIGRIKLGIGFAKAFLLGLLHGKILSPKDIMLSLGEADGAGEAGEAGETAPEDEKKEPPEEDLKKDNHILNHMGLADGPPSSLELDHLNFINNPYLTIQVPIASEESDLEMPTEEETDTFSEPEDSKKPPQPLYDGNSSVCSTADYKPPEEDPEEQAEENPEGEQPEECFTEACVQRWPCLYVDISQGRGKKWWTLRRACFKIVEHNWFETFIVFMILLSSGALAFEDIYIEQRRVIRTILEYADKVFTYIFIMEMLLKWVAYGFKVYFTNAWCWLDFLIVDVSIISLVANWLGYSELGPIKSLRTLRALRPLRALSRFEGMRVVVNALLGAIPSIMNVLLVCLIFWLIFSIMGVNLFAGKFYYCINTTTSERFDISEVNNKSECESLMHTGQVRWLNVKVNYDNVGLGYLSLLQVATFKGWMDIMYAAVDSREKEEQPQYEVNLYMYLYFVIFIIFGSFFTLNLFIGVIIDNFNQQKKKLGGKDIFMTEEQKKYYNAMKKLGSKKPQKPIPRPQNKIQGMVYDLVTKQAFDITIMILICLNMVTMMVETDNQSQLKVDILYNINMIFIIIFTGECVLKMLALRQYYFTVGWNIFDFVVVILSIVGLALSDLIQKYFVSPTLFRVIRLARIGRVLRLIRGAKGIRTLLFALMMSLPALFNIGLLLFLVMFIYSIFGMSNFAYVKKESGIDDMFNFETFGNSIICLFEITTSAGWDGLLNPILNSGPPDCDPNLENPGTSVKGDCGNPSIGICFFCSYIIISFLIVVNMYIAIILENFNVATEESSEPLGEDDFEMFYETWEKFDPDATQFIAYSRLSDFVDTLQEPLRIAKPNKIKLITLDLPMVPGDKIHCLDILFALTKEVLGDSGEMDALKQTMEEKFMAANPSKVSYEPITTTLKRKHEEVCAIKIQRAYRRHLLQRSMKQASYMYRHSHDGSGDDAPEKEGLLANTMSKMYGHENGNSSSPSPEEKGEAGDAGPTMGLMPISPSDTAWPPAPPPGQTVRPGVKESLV

hNaV1.6 = hNaV1.6 (Homo sapiens, UniProt Q9UQD0); assay: cell-based; conditions: N = 4; SEM; read-out: IC50 ± SEM, NaV1.6
hNaV1.5 = hNaV1.5 (Homo sapiens, UniProt Q14524); assay: cell-based; assay type: cell-based; conditions: for IC50: N = 3-4, read-out: IC50 ± SEM, NaV1.5
hNaV1.2 = hNaV1.2 (Homo sapiens, UniProt Q99250); assay: cell-based; conditions: N = 3-6; SEM; read-out: IC50 ± SEM, NaV1.2
[3] = system: endogenous K+ currents from non-transfected HEK293 cells; assay type: cell-based
[4] = system: rKV2.1/hNaV1.1 chimera containing the paddles S3–S4 from DII from NaV1.1; assay type: cell-based
[5] = N = 3-4, SEM, read-out: IC50 ± SEM, NaV1.7
[6] = N = 4-5, SEM, read-out: IC50 ± SEM, NaV1.1

T1 sequence (Q15858 whole entry, looked up): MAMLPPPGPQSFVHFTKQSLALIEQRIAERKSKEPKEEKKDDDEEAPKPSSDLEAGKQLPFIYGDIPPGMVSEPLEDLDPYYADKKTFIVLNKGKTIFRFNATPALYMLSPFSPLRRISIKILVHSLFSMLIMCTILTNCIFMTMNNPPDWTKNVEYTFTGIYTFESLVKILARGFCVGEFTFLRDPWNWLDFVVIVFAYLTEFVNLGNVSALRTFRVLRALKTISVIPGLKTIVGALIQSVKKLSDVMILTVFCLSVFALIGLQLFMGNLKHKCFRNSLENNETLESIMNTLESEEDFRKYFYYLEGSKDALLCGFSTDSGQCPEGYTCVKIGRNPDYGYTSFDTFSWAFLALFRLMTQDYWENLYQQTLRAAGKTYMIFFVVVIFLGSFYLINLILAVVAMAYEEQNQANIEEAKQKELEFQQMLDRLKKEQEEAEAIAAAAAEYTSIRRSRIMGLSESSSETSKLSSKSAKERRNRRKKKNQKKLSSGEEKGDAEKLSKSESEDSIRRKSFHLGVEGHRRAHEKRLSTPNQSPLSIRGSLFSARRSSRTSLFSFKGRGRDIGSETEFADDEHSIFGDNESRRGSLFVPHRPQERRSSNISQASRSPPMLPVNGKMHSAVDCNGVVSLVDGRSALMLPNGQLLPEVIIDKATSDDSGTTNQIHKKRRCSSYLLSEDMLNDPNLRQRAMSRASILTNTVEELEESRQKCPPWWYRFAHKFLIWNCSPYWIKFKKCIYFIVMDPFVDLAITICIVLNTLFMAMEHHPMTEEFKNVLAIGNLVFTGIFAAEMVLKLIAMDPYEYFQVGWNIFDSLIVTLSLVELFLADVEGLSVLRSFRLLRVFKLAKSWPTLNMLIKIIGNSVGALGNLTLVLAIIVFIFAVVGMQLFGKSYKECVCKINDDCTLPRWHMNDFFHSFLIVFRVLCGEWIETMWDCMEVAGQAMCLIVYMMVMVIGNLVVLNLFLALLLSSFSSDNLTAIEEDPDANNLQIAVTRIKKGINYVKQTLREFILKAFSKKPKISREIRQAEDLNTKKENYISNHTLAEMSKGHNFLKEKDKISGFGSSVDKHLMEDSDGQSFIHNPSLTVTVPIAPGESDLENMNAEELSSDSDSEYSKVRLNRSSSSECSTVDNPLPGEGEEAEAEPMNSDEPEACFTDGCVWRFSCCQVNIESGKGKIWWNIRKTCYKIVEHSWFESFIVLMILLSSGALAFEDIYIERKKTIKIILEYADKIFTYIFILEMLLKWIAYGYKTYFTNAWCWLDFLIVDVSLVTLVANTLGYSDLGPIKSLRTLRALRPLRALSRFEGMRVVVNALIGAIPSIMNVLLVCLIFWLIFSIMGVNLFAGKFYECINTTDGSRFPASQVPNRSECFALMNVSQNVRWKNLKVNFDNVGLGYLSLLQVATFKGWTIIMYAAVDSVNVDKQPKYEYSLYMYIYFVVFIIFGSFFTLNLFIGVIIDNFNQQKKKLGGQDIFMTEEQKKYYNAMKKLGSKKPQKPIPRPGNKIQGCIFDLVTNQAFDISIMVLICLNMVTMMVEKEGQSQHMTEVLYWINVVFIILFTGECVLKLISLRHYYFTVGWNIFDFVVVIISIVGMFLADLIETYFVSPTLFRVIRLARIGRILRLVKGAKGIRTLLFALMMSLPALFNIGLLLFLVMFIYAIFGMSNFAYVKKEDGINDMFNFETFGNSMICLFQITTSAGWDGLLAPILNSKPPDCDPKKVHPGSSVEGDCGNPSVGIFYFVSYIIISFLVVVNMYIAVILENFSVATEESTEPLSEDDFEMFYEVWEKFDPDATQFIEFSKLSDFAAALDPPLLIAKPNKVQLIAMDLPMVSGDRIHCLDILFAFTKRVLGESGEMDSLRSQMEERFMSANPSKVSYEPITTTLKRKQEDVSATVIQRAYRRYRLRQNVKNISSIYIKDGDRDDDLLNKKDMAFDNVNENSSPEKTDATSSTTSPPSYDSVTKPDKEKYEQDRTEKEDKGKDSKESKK

For `CSCC[C@@H]1NC(=O)CNC(=O)[C@H](CC(C)C)NC(=O)[C@@H](NC(=O)[C@H](CC(=O)O)NC(=O)[C@H](CC(=O)O)NC(=O)CN)CSSC[C@@H]2NC(=O)[C@@H]3CSSC[C@@H](C(=O)N[C@@H](CCCCN)C(=O)N[C@@H](Cc4ccc(O)cc4)C(=O)N[C@@H](C)C(=O)N[C@@H](CC(C)C)C(=O)N[C@@H](Cc4c[nH]c5ccccc45)C(=O)O)NC(=O)[C@H](Cc4c[nH]c5ccccc45)NC(=O)[C@H](CCC(N)=O)NC(=O)[C@H](CC(=O)O)NC(=O)[C@H](CCCCN)NC(=O)[C@H](CCCNC(=N)N)NC(=O)[C@H](CO)NC(=O)[C@H](CSSC[C@H](NC(=O)[C@H](CO)NC(=O)[C@H](CO)NC(=O)[C@H](Cc4ccccc4)NC1=O)C(=O)N[C@@H](CC(=O)O)C(=O)N1CCC[C@H]1C(=O)N[C@@H](CC(N)=O)C(=O)N[C@@H](CC(N)=O)C(=O)N[C@@H](CC(=O)O)C(=O)N[C@@H](CCCCN)C(=O)N3)NC(=O)[C@H](CCCCN)NC(=O)[C@H](CCCNC(=N)N)NC(=O)[C@H](CC(N)=O)NC(=O)[C@@H]1CCCN1C2=O` [Peptide Q33A] (H-GDDCLGMFSSCDPNNDKCCPNRKCSRKDQWCKYALW-OH; disulfide 4-19, 11-24, 18-31), the IC50 (hNaV1.7 [1]) was 99 nM and the IC50 (hNaV1.1) was 163 nM.

In the case of `CSCC[C@@H]1NC(=O)CNC(=O)[C@H](CC(C)C)NC(=O)[C@@H](NC(=O)[C@H](CC(=O)O)NC(=O)[C@H](CC(=O)O)NC(=O)CN)CSSC[C@@H]2NC(=O)[C@@H]3CSSC[C@@H](C(=O)N[C@@H](CCCCN)C(=O)N[C@@H](Cc4ccc(O)cc4)C(=O)N[C@@H](CCC(N)=O)C(=O)N[C@@H](CC(C)C)C(=O)N[C@@H](Cc4c[nH]c5ccccc45)C(=O)O)NC(=O)[C@H](Cc4c[nH]c5ccccc45)NC(=O)[C@H](CCC(N)=O)NC(=O)[C@H](CC(=O)O)NC(=O)[C@H](CCCCN)NC(=O)[C@H](CCCNC(=N)N)NC(=O)[C@H](C)NC(=O)[C@H](CSSC[C@H](NC(=O)[C@H](CO)NC(=O)[C@H](CO)NC(=O)[C@H](Cc4ccccc4)NC1=O)C(=O)N[C@@H](CC(=O)O)C(=O)N1CCC[C@H]1C(=O)N[C@@H](CC(N)=O)C(=O)N[C@@H](CC(N)=O)C(=O)N[C@@H](CC(=O)O)C(=O)N[C@@H](CCCCN)C(=O)N3)NC(=O)[C@H](CCCCN)NC(=O)[C@H](CCCNC(=N)N)NC(=O)[C@H](CC(N)=O)NC(=O)[C@@H]1CCCN1C2=O` [Peptide S24A] (H-GDDCLGMFSSCDPNNDKCCPNRKCARKDQWCKYQLW-OH; disulfide 4-19, 11-24, 18-31), the IC50 (hNaV1.7 [1]) is reported as 920 nM and the IC50 (hNaV1.1) is reported as > 1000 nM.

For `CSCC[C@@H]1NC(=O)CNC(=O)[C@H](CC(C)C)NC(=O)[C@@H](NC(=O)[C@H](CC(=O)O)NC(=O)[C@H](CC(=O)O)NC(=O)CN)CSSC[C@@H]2NC(=O)[C@@H]3CSSC[C@@H](C(=O)N[C@@H](CCCCN)C(=O)N[C@@H](Cc4ccc(O)cc4)C(=O)N[C@@H](CCC(N)=O)C(=O)N[C@@H](CC(C)C)C(=O)N[C@@H](C)C(=O)O)NC(=O)[C@H](Cc4c[nH]c5ccccc45)NC(=O)[C@H](CCC(N)=O)NC(=O)[C@H](CC(=O)O)NC(=O)[C@H](CCCCN)NC(=O)[C@H](CCCNC(=N)N)NC(=O)[C@H](CO)NC(=O)[C@H](CSSC[C@H](NC(=O)[C@H](CO)NC(=O)[C@H](CO)NC(=O)[C@H](Cc4ccccc4)NC1=O)C(=O)N[C@@H](CC(=O)O)C(=O)N1CCC[C@H]1C(=O)N[C@@H](CC(N)=O)C(=O)N[C@@H](CC(N)=O)C(=O)N[C@@H](CC(=O)O)C(=O)N[C@@H](CCCCN)C(=O)N3)NC(=O)[C@H](CCCCN)NC(=O)[C@H](CCCNC(=N)N)NC(=O)[C@H](CC(N)=O)NC(=O)[C@@H]1CCCN1C2=O` [Peptide W35A] (H-GDDCLGMFSSCDPNNDKCCPNRKCSRKDQWCKYQLA-OH; disulfide 4-19, 11-24, 18-31), the IC50 (hNaV1.7 [1]) was > 1000 nM and the IC50 (hNaV1.1) was > 1000 nM.

With `CSCC[C@@H]1NC(=O)CNC(=O)[C@H](CC(C)C)NC(=O)[C@@H](NC(=O)[C@H](CC(=O)O)NC(=O)[C@H](CC(=O)O)NC(=O)CN)CSSC[C@@H]2NC(=O)[C@@H]3CSSC[C@@H](C(=O)N[C@@H](CCCCN)C(=O)N[C@@H](C)C(=O)N[C@@H](CCC(N)=O)C(=O)N[C@@H](CC(C)C)C(=O)N[C@@H](Cc4c[nH]c5ccccc45)C(=O)O)NC(=O)[C@H](Cc4c[nH]c5ccccc45)NC(=O)[C@H](CCC(N)=O)NC(=O)[C@H](CC(=O)O)NC(=O)[C@H](CCCCN)NC(=O)[C@H](CCCNC(=N)N)NC(=O)[C@H](CO)NC(=O)[C@H](CSSC[C@H](NC(=O)[C@H](CO)NC(=O)[C@H](CO)NC(=O)[C@H](Cc4ccccc4)NC1=O)C(=O)N[C@@H](CC(=O)O)C(=O)N1CCC[C@H]1C(=O)N[C@@H](CC(N)=O)C(=O)N[C@@H](CC(N)=O)C(=O)N[C@@H](CC(=O)O)C(=O)N[C@@H](CCCCN)C(=O)N3)NC(=O)[C@H](CCCCN)NC(=O)[C@H](CCCNC(=N)N)NC(=O)[C@H](CC(N)=O)NC(=O)[C@@H]1CCCN1C2=O` [Peptide Y32A] (H-GDDCLGMFSSCDPNNDKCCPNRKCSRKDQWCKAQLW-OH; disulfide 4-19, 11-24, 18-31) the IC50 (hNaV1.7 [1]) was > 1000 nM and the IC50 (hNaV1.1) was > 1000 nM.

Work on `CC[C@H](C)[C@@H]1NC(=O)CNC(=O)[C@H](CC(C)C)NC(=O)[C@@H](NC(=O)CNC(=O)CN)CSSC[C@@H]2NC(=O)[C@@H]3CSSC[C@@H](C(=O)N[C@@H](CCCCN)C(=O)N[C@@H](Cc4c[nH]c5ccccc45)C(=O)N[C@@H](CCCCN)C(=O)N[C@@H](CC(C)C)C(=O)N[C@@H](Cc4c[nH]c5ccccc45)C(=O)O)NC(=O)[C@H](Cc4c[nH]c5ccccc45)NC(=O)[C@H](CCCNC(=N)N)NC(=O)[C@H](Cc4c[nH]cn4)NC(=O)[C@H](CCCCN)NC(=O)[C@H](CCCCN)NC(=O)[C@H](CO)NC(=O)[C@H](CSSC[C@H](NC(=O)[C@H](CO)NC(=O)[C@H](CO)NC(=O)[C@H](Cc4ccccc4)NC1=O)C(=O)N[C@@H](CC(=O)O)C(=O)N1CCC[C@H]1C(=O)N[C@@H](CCC(=O)O)C(=O)N[C@@H](CC(N)=O)C(=O)N[C@@H](CC(=O)O)C(=O)N[C@@H](CCCCN)C(=O)N3)NC(=O)[C@H](C(C)C)NC(=O)[C@H](CCCNC(=N)N)NC(=O)[C@H](CC(N)=O)NC(=O)[C@H](Cc1ccc(O)cc1)NC2=O` [Tap1a-OPT1] (H-GGCLGIFSSCDPENDKCCYNRVCSKKHRWCKWKLW-OH; disulfide 3-18, 10-23, 17-30) yielded an IC50 (hNaV1.3) of 6 ± 0.5 nM, an IC50 (hNaV1.7 [1]; [5]) of 3 ± 0.7 nM and an IC50 (hNaV1.1; [6]) of 17 ± 3 nM. The “Kon observed, hNaV1.7” value (hNaV1.7 [2]) was 8.60 ± 1.7 × 10^−3 s^−1, the IC50 (hNaV1.4; SEM) was 100 ± 19 nM and the IC50 (hNaV1.6) was 4.6 ± 2.3 nM. The IC50 (hNaV1.5) was > 1000 nM and the IC50 (hNaV1.2) was 5 ± 1 nM.

With `CC[C@H](C)[C@@H]1NC(=O)CNC(=O)[C@H](CC(C)C)NC(=O)[C@@H](NC(=O)CNC(=O)CN)CSSC[C@@H]2NC(=O)[C@@H]3CSSC[C@@H](C(=O)N[C@@H](CCCCN)C(=O)N[C@@H](Cc4c[nH]c5ccccc45)C(=O)N[C@@H](CCCCN)C(=O)N[C@@H](CC(C)C)C(=O)N[C@@H](Cc4c[nH]c5ccccc45)C(=O)O)NC(=O)[C@H](Cc4c[nH]c5ccccc45)NC(=O)[C@H](CCCNC(=N)N)NC(=O)[C@H](Cc4c[nH]cn4)NC(=O)[C@H](CCCCN)NC(=O)[C@H](CCCCN)NC(=O)[C@H](CO)NC(=O)[C@H](CSSC[C@H](NC(=O)[C@H](CO)NC(=O)[C@H](CO)NC(=O)[C@H](C)NC1=O)C(=O)N[C@@H](CC(=O)O)C(=O)N1CCC[C@H]1C(=O)N[C@@H](CCC(=O)O)C(=O)N[C@@H](CC(N)=O)C(=O)N[C@@H](CC(=O)O)C(=O)N[C@@H](CCCCN)C(=O)N3)NC(=O)[C@H](C(C)C)NC(=O)[C@H](CCCNC(=N)N)NC(=O)[C@H](CC(N)=O)NC(=O)[C@H](Cc1ccc(O)cc1)NC2=O` [Tap1a-OPT2] (H-GGCLGIASSCDPENDKCCYNRVCSKKHRWCKWKLW-OH; disulfide 3-18, 10-23, 17-30) the IC50 (hNaV1.3) was 96 ± 9 nM, the “loss of activity for NaV1.7 compared to Tap1a-OPT1” value (hNaV1.7 [1]) was 2 fold and the IC50 (hNaV1.7 [1]; [5]) was 35 ± 2 nM. For the same molecule, the IC50 (hNaV1.1; [6]) was 54 ± 9 nM, the “inhibition of NaV1.4, in words” value (hNaV1.4) was “did not significantly inhibit” and the “loss of activity for NaV1.4 compared to Tap1a-OPT1” value (hNaV1.4) was “at least 10 fold”. The IC50 (hNaV1.4) was > 1000 nM, the IC50 (hNaV1.6) was 75 ± 11 nM and the “inhibition of NaV1.5, in words” value (hNaV1.5) was “did not significantly inhibit”. For the same molecule, the IC50 (hNaV1.5) was > 1000 nM and the IC50 (hNaV1.2) was 43 ± 5 nM.

`COC(=O)C1=C(C)NC(C)=C(C(=O)OC)C1c1ccccc1[N+](=O)[O-]` [nifedipine] was tested, and the “effect on endogenous potassium currents of non-transfected HEK293 cells” value [3] was “inhibited” and the “effect on potassium currents of cells transfected with the chimera KV2.1/NaV1.1 VSDII” value [4] was “sensitive”.
